These results are taken from patent publication US5144010A, “Method of producing monoclonal auto-anti-idiotypic antibodies” (The Trustees of Columbia University in the City of New York, priority 1989, dated 1992).

This experiment concerns the target T1, adenosine receptor (Rattus norvegicus, UniProt P25099).
T1 sequence (P25099 1-326): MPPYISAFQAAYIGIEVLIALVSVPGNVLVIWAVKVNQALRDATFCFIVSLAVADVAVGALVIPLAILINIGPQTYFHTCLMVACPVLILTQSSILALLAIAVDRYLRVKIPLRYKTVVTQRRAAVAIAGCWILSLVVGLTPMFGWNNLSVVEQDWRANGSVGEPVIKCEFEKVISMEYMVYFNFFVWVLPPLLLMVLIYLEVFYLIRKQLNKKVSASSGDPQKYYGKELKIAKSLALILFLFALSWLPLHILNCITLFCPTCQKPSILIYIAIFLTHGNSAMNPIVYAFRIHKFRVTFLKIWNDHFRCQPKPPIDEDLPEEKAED
In words: Binding of monoclonal anti-idiotypic antibodies to adenosine receptor preparation and rabbit anti-CPA. Particulars: adenosine receptor preparation from rat brain. The protocol:
Protocols for immunization and fusion were essentially identical to that described previously for BisQ in Example 2. Immunization was effected with the RSA conjugate, but the BSA conjugate is just as satisfactory. Screening was conducted with the BSA conjugate and with a specifically purified rabbit antibody raised by immunization with the BSA conjugate. Specifically purified antibody was prepared in a manner analogous to that described for anti-BisQ antibody (1) except that the immunoadsorbent was N^6 -(carboxypentamethylene) adenosine linked to aminohexylsepharose (Pharmacia).

As for `OC[C@H]1O[C@@H](n2cnc3c(NC4CCCCC4)ncnc32)[C@H](O)[C@@H]1O` [N^6 -cyclohexyladenosine], the “inhibition of the reaction of monoclonal anti-idiotypic antibodies with adenosine receptor” value is “could be inhibited”.
